“And” between values parts separate entries of the source, which are not always exact repeats. Equal entries are not always repeated.
How the values were obtained:
[1] = system: BCL-2/PROTAC/VCB ternary complex (HiBit-BCL-2, HaloTag-VHL); experiment: NanoBRET intracellular ternary complex formation in 293T cells, BCL-2; format: cell-based, human; settings: for NanoBRET signal (610/450 ratio, background-subtracted), Ave, Bcl-2: Ave of Read1 and Read2, per replicate well; for NanoBRET signal (610/450 ratio, background-subtracted), Read1, Bcl-2 / NanoBRET signal (610/450 ratio, background-subtracted), Read2, Bcl-2: individual replicate wells
Excerpt: (§1) Plasmids HaloTag-VHL (Cat. No. CS1679C155) and CMV HiBit (Cat. No. CS1956B03) were purchased from Promega. HiBit-BCL-xL and HiBit-BCL-2 were constructed previously. The two mutants (HiBit-BCL-xL-K157-only and HiBit-BCL-xL-K-ko) were constructed through Gibson assembly method. The primer pair (5′-[…]-3′ and 5′-[…]c[…]-3′) and the template Flag-BCL-xL-K157-only or Flag-BCL-xL-K-ko (pDL2129)[2] were used to clone the BCL-xL-K157-only-containing and BCL-xL-K-ko-containing fragments, respectively. The primer pair (5′-[…]g[…]-3′ and 5′-[…]-3′) and pBit3.1-N (Cat. No. N2361, Promega) were used to clone the vector-containing fragment. The PCR fragments were assembled using NEBuilder® HiFi DNA Assembly Master Mix (Cat. No. E2621, NEB, Ipswich, MA, USA). DNA sequences in all these plasmids were authenticated by automatic sequencing. […] After 24 h, 2 × 10^4 transfected cells were seeded into white 96-well tissue culture plates in Gibco™ Opti-MEM™ I Reduced Serum Medium, No Phenol Red (Cat. No. 11-058-021, Fisher) containing 4% FBS with or without HaloTag NanoBRET 618 Ligand (Cat. No. PRN1662, Promega) and incubated overnight at 37 °C, 5% CO2. The following day, serial diluted compounds were added into the medium and plates were incubated at 37 °C, 5% CO2, for 6 h. After treatment, NanoBRET Nano-Glo Substrate (cat. no. N1662, Promega) was added into the medium, and the contents were mixed by shaking the plate for 30 s before measuring donor and acceptor signals on Biotek plate reader. Dual-filtered luminescence was collected with a 450/50 nm bandpass filter (donor, NanoBiT-BCL-XL protein or NanoBiT-BCL-2 protein) and a 610-nm longpass filter (acceptor, HaloTag NanoBRET ligand) using an integration time of 0.5 s. mBRET ratios were calculated following the NanoBRET™ Nano-Glo® Detection System (Cat. No. N1662, Promega).

[2] = system: BCL-xL/PROTAC/VCB ternary complex (HiBit-BCL-xL, HaloTag-VHL); experiment: NanoBRET intracellular ternary complex formation in 293T cells, BCL-xL; format: cell-based, human; settings: for NanoBRET signal (610/450 ratio, background-subtracted), Ave, Bcl-xl: Ave of Read1 and Read2, per replicate well; for NanoBRET signal (610/450 ratio, background-subtracted), Read1, Bcl-xl / NanoBRET signal (610/450 ratio, background-subtracted), Read2, Bcl-xl: individual replicate wells
Excerpt: as §1

Structure (SMILES) | NanoBRET signal (610/450 ratio, background-subtracted), Ave, Bcl-2 ([1]; 0.333 uM) | NanoBRET signal (610/450 ratio, background-subtracted), Read1, Bcl-2 ([1]; 0.333 uM) | NanoBRET signal (610/450 ratio, background-subtracted), Read2, Bcl-2 ([1]; 0.333 uM) | NanoBRET signal (610/450 ratio, background-subtracted), Ave, Bcl-2 ([1]; 1 uM) | NanoBRET signal (610/450 ratio, background-subtracted), Read1, Bcl-2 ([1]; 1 uM) | NanoBRET signal (610/450 ratio, background-subtracted), Read2, Bcl-2 ([1]; 1 uM) | NanoBRET signal (610/450 ratio, background-subtracted), Ave, Bcl-2 ([1]; 3 uM) | NanoBRET signal (610/450 ratio, background-subtracted), Read1, Bcl-2 ([1]; 3 uM) | NanoBRET signal (610/450 ratio, background-subtracted), Read2, Bcl-2 ([1]; 3 uM) | NanoBRET signal (610/450 ratio, background-subtracted), Ave, Bcl-xl ([2]; 0.333 uM) | NanoBRET signal (610/450 ratio, background-subtracted), Read1, Bcl-xl ([2]; 0.333 uM) | NanoBRET signal (610/450 ratio, background-subtracted), Read2, Bcl-xl ([2]; 0.333 uM) | NanoBRET signal (610/450 ratio, background-subtracted), Ave, Bcl-xl ([2]; 1 uM) | NanoBRET signal (610/450 ratio, background-subtracted), Read1, Bcl-xl ([2]; 1 uM) | NanoBRET signal (610/450 ratio, background-subtracted), Read2, Bcl-xl ([2]; 1 uM) | NanoBRET signal (610/450 ratio, background-subtracted), Ave, Bcl-xl ([2]; 3 uM) | NanoBRET signal (610/450 ratio, background-subtracted), Read1, Bcl-xl ([2]; 3 uM) | NanoBRET signal (610/450 ratio, background-subtracted), Read2, Bcl-xl ([2]; 3 uM)
Cc1ncsc1-c1ccc(C(C)NC(=O)C2CC(O)CN2C(=O)C(NC(=O)CCCCCCCC(=O)N2CCN(CC3(C)CCC(c4ccc(Cl)cc4)=C(CN4CCN(c5ccc(C(=O)NS(=O)(=O)c6ccc(NC(CCN7CCOCC7)CSc7ccccc7)c(S(=O)(=O)C(F)(F)F)c6)cc5)CC4)C3)CC2)C(C)(C)C)cc1 (mixture of isomers) [319-C9] | 5.707 and 5.966 and 5.739 | 6.091 and 5.602 and 5.911 | 5.322 and 6.329 and 5.568 | 8.164 and 7.003 and 7.361 | 7.94 and 7.065 and 7.5271 | 8.387 and 6.941 and 7.196 | 7.788 and 8.559 and 8.325 | 7.715 and 8.321 and 8.876 | 7.862 and 8.797 and 7.774 | 7.303 and 5.548 and 6.719 | 7.675 and 6.0029 and 7.554 | 6.932 and 5.093 and 5.885 | 6.725 and 7.112 | 7.559 and 11.4906 and 7.902 | 5.8908 and 9.929 and 6.321 | 8.449 and 8.436 and 7.804 | 8.506 and 8.886 and 8.744 | 8.392 and 7.986 and 6.863
Cc1ncsc1-c1ccc(C(C)NC(=O)C2CC(O)CN2C(=O)C(NC(=O)CCCCCCCCC(=O)N2CCN(CC3(C)CCC(c4ccc(Cl)cc4)=C(CN4CCN(c5ccc(C(=O)NS(=O)(=O)c6ccc(NC(CCN7CCOCC7)CSc7ccccc7)c(S(=O)(=O)C(F)(F)F)c6)cc5)CC4)C3)CC2)C(C)(C)C)cc1 (mixture of isomers) [319-C10] | 5.28 and 5.803 and 5.204 | 5.21 and 6.342 and 5.353 | 5.35 and 5.263 and 5.054 | 6.3574 and 6.177 and 5.647 | 6.493 and 6.555 and 5.614 | 6.221 and 5.799 and 5.68 | 5.897 and 6.959 and 6.718 | 5.772 and 7.082 and 6.87 | 6.022 and 6.837 and 6.566 | 7.322 and 6.232 and 5.134 | 7.3 and 6.35 and 5.398 | 7.344 and 6.1137 and 4.87 | 7.385 and 6.082 and 6.14 | 7.049 and 5.821 and 5.916 | 7.722 and 6.342 and 6.364 | 5.435 and 6.539 and 6.402 | 5.79 and 7.0778 and 5.898 | 5.08 and 6.001 and 6.906

— article PMC8617031, “Development of a BCL-xL and BCL-2 dual degrader with improved anti-leukemic activity,” (Nature Communications, 2021)
